Laboratory results: ChEMBL document CHEMBL1177793, “Synthesis and evaluation of novel phosphate ester analogs as neutral sphingomyelinase inhibitors” (Bioorg Med Chem Lett, 2010)
Calls of active or inactive are those of the source. The calls are words filed in the database; no cut-off is given here.

How the values were obtained:
[1] = Inhibition of Bacillus cereus sphingomyelinase expressed in Bacillus subtilis ISW1214 assessed as [14C]sphingomyeline hydrolysis after 30 mins by liquid scintillation counting
[2] = Competitive inhibition of Bacillus cereus sphingomyelinase expressed in Bacillus subtilis ISW1214 after 30 mins by Lineweaver-Burke plot analysis
[3] = test system: Bacillus cereus; experiment: Inhibition of Bacillus cereus sphingomyelinase expressed in Bacillus subtilis ISW1214 assessed as sphingomyeline liposome degradation after 30 mins
[4] = test system: Bacillus cereus; experiment: Inhibition of Bacillus cereus sphingomyelinase expressed in Bacillus subtilis ISW1214 assessed as sphingomyeline liposome degradation at 20 to 100 uM after 30 mins

| IC50 [1] | Ki [2] | inhibition [3] | inhibition [4] | Structure (SMILES) |
| --- | --- | --- | --- | --- |
| 1.2 µM | 5.2 µM | Dose-dependent effect | – | CCCCCCCCCCCCC/C=C/[C@@H](O)[C@H](COCc1cccc(-c2ccccn2)n1)NC(=O)CCCCC |
| – | – | – | inactive | c1ccc(-c2ccccn2)nc1 |
| – | – | – | inactive | CCCCCCCCCCCCC/C=C/[C@@H](OCc1cccc(-c2ccccn2)n1)[C@H](CO)NC(=O)CCCCC |
